The test system of test [1] is HepG2. The test is described as follows: Antiproliferative activity against human HepG2 cells at 25 uM after 48 hrs by MTT assay. It is filed as functional. (In general: Tetrazolium assays rely on reduction of a dye to a coloured formazan, in cell work by metabolically active cells.)
For test [2], the system named is HepG2. The test is described as follows: Antiproliferative activity against human HepG2 cells at 6.25 to 50 uM after 48 hrs by MTT assay. It is filed as functional, cell-based.
Test [3] relates to HepG2. The test is described as follows: Antiproliferative activity against human HepG2 cells at 6.25 to 50 uM after 24 hrs by MTT assay. It is filed as functional, cell-based.
Test [4] deals with HepG2. The test is described as follows: Antiproliferative activity against human HepG2 cells at 12.5 uM after 48 hrs by MTT assay. It is filed as functional.
The subject of test [5] is HepG2. Put plainly: Antiproliferative activity against human HepG2 cells at 6.25 uM after 24 hrs by MTT assay. It is filed as functional.
The test system of test [6] is HepG2. Put plainly: Antiproliferative activity against human HepG2 cells at 6.25 uM after 48 hrs by MTT assay. It is filed as functional.
For test [7], the system named is HepG2. Put plainly: Antiproliferative activity against human HepG2 cells at 25 uM after 24 hrs by MTT assay. It is filed as functional.

Active and inactive are the calls of the source. The rule behind the calls is not given here.

As to `C[C@@H]1O[C@@H](O[C@@H]2[C@@H](O)[C@H](O)[C@@H](CO)O[C@H]2c2c(O)cc3oc(-c4ccc(O)c(O)c4)cc(=O)c3c2O)[C@H](O)[C@H](O)[C@H]1O`, in the test on HepG2 [1], the Activity worked out at 74.9%. Consider `C[C@@H]1O[C@@H](O[C@@H]2[C@@H](O)[C@@H](O)CO[C@H]2c2c(O)cc3oc(-c4ccc(O)c(O)c4)cc(=O)c3c2O)[C@H](O)[C@H](O)[C@H]1O`, for which the result with HepG2 [2] was Active. As to `O=C1C[C@@H](c2ccc(O)cc2)Oc2c1c(O)cc(O[C@@H]1O[C@H](CO)[C@@H](O)[C@H](O)[C@H]1O)c2[C@@H]1OC[C@H](O)[C@H](O)[C@H]1O`, the outcome in the test on HepG2 [3] was inactive. Regarding `O=c1cc(-c2ccc(O)c(O)c2)oc2cc(O)c([C@@H]3O[C@H](CO)[C@@H](O)[C@H](O)[C@H]3O)c(O)c12` [ISOORIENTIN], the Activity was 92% in the test on HepG2 [4], 19.6% in the test on HepG2 [5], 84% in the test with HepG2 [6] and 26.1% in the test on HepG2 [7].

The record behind these values is ChEMBL document CHEMBL1649353, “Spectroscopic characterization and antiproliferative activity on HepG2 human hepatoblastoma cells of flavonoid C-glycosides from Petrorhagia velutina” (2010).
